Measured values as given in patent US7186755B2 (Helsinn Health Care S.A., priority 1997, dated 2007).
Like-named read-outs stand apart in the source and are kept apart here.

Tests used:
[1] = human volunteers, 14C nimesulide
[2] = rats, 14C nimesulide

CS(=O)(=O)Nc1ccc([N+](=O)[O-])cc1Oc1ccccc1 [Nimesulide]
Systemic concentrations of nimesulide after dermal application [1]: no significant systemic concentrations | Systemic concentrations of nimesulide after dermal application [2]: no significant systemic concentrations
